A compilation of properties of binary mixtures (doi:10.1016/j.molliq.2012.09.002)

Assay: xn = mol fraction of the nth substance listed
Conditions: 101 kPa

CCCCCC[n+]1ccn(C)c1.F[B-](F)(F)F + CN(CCO)CCO
viscosity [mPa·s]
Conditions | x2 = 0 | x2 = 0.097 | x2 = 0.192 | x2 = 0.2909 | x2 = 0.3916 | x2 = 0.4949 | x2 = 0.5936 | x2 = 0.6935 | x2 = 0.7928 | x2 = 0.8824
303.15 K | 85 | 81.7 | 78.6 | 75.6 | – | – | 67.1 | 64.6 | – | 60.1
308.15 K | 69 | 65.9 | 63.1 | 60.3 | 57.6 | 55.1 | 52.7 | 50.5 | 48.3 | 46.5
313.15 K | 55 | 52.5 | 50.2 | 48 | 45.8 | 43.7 | – | 40 | 38.3 | –
318.15 K | 43 | 41.1 | 39.3 | 37.6 | 35.9 | – | 32.8 | 31.4 | 30.1 | 28.9
323.15 K | 36 | 34.2 | 32.6 | 31 | 29.5 | 28 | 26.7 | 25.5 | 24.3 | 23.3

CN(CCO)CCO + CCCCCC[n+]1ccn(C)c1.F[B-](F)(F)F
x1 = 1
Conditions | viscosity [mPa·s]
318.15 K | 27.5
323.15 K | 22
